Results reported in publication PMC7447632, “Highly functionalized β-lactams and 2-ketopiperazines as TRPM8 antagonists with antiallodynic activity” (Scientific Reports, 2020).

Experiments:
Type in all cases: cell-based
[1] = tested on: PSN1 (pancreas adenocarcinoma); assay: SRB cytotoxicity assay, PSN1; conditions: 72 h, SRB; for TGI PSN1: total growth inhibition; for TGI PSN1 / CC50: unit inferred; for GI50 / CC50: Homo sapiens, PSN1; for CC50: read-out: LC50 PSN1
Protocol: (§1) Human tumor cell lines used in this study were purchased from the ATCC. A-549 (CCL-185), lung carcinoma; HT-29 (HTB-38), colorectal adenocarcinoma; MDA-MB-231 (HTB-26), breast adenocarcinoma; PSN1, pancreas adenocarcinoma.
(§2) All cell lines were maintained in DMEM (Dulbecco’s Modified Eagle's Medium) culture medium supplemented with 10% FBS (Fetal Bovine Serum), 100 Units/mL penicillin/streptomycin at 37 °C, 5% CO2 and 95% humidity.
(§3) Triplicate cultures were incubated for 72 h in the presence or absence of test compounds in dose–response curves (10 concentrations, typically ranging from 10 to 0.0026 µg/mL). A colorimetric assay using sulforhodamine B (SRB) was adapted for quantitative measurement of cell growth and cytotoxicity. A more detailed information on this assay is provides in the supplementary information. GI50 is the compound concentration that produces 50% inhibition on cell growth as compared to control cells.
(§4) In vitro bioassays for the detection of antitumor activity
(§5) The aim of this assay is to evaluate the in vitro cytostatic (ability to delay or arrest tumor cell growth) or cytotoxic (ability to kill tumor cells) activity of the samples […]
(§6) Name Nº ATCC Species Tissue Characteristics
(§7) A549 CCL-185 human lung lung carcinoma (NSCLC)
(§8) HT29 HTB-38 human colon colorectal adenocarcinoma
(§9) MDA-MB-231 HTB-26 human breast breast adenocarcinoma
(§10) PSN1 CRM-CRL-3211 human pancreas pancreas adenocarcinoma […]
(§11) A colorimetric assay, using Sulforhodamine B (SRB) reaction has been adapted to provide a quantitative measurement of cell growth and viability (following the technique described by Skehan et al. J. Natl. Cancer Inst. 1990, 82, 1107-1112 […]
(§12) This form of assay employs 96-well cell culture microplates following the standards of the American National Standards Institute and the Society for Laboratory […]
(§13) used in this study were obtained from the American Type Culture Collection (ATCC) and derive from different types of human cancer.
(§14) A549, HT29, MDA-MB-231 and PSN1 cells were maintained in Dulbecco’s
(§15) Modified Eagle Medium (DMEM) supplemented with 10% Fetal Bovine Serum (FBS), 2mM L-glutamine, 100 U/mL penicillin, and 100 U/mL streptomycin at 37 °C, 5% CO2 and 98% humidity. For the experiments, cells were harvested from subconfluent cultures using trypsinization and resuspended in fresh medium before counting and […]
(§16) A549, HT29, MDA-MB-231 and PSN1 cells were seeded in 96 well microtiter plates, at 5000 cells per well in aliquots of 150 µL, and allowed to attach to the plate surface for 18 hours (overnight) in drug free medium. After that, one control (untreated) plate of each cell line was fixed (as described below) and used for time zero reference value. Culture plates were then treated with test compounds (50 µL aliquots of 4X stock […]
(§17) solutions in complete culture medium plus 4% DMSO) using ten 2/5 serial dilutions (concentrations ranging from 10 to 0.003 µg/mL) and triplicate cultures (1% final concentration in DMSO). After 72 hours treatment, the antitumor effect was measured by using the SRB methodology: Briefly, cells were washed twice with PBS, fixed for 15 min in 1% glutaraldehyde solution at room temperature, rinsed twice in PBS, and stained in 0.4% SRB solution for 30 min at room temperature. Cells were then rinsed several times with 1% acetic acid solution and air-dried at room temperature. SRB was then extracted in 10 mM trizma base solution and the absorbance measured in an automated spectrophotometric plate reader at 490 nm.
(§18) Effects on cell growth and survival were estimated by applying the NCI algorithm (Boyd MR and Paull KD. Drug Dev. Res. 1995, 34, 91-109, DOI:10.1002/ddr.430340203). The values obtained in triplicate cultures were fitted by nonlinear regression to a four-parameters logistic curve by nonlinear regression analysis. . Using the absorbance measurements [time zero, (Tz), control growth, (C), and test growth in the presence of drug at the ten concentration levels (Ti)], the […]

[2] = tested on: MDA-MB-231 (breast adenocarcinoma); assay: SRB cytotoxicity assay, MDA-MB-231; conditions: 72 h, SRB; for TGI MDA-MB-231: total growth inhibition; for TGI MDA-MB-231 / CC50: unit inferred; for GI50 / CC50: Homo sapiens, MDA-MB-231; for CC50: read-out: LC50 MDA-MB-231
Protocol: as §1, §2, §3, §4, §5, §6, §7, §8, §9, §10, §11, §12, §13, §14, §15, §16, §17, §18

60 tumor cell screen = 60 tumor cell screen at the National Cancer Institute; conditions: 10 µM concentration
Excerpt: A number of recent experimental evidences position TRPM channels as important players in cancer growth and progression. Among these channels, the aberrant expression of the TRPM8 subtype has been described in different human malignant tumors, including those of prostate, pancreas, breast, colon, and skin, among others. More importantly, sometimes the TRPM8 overexpression was associated to poor prognosis of cancer patients. […] Based on these precedents, in this work we first aimed at evaluating the antitumor activity of enantiopure compounds 24a and 29a. Initially, we assessed the growth inhibition percentage by a 10 µM concentration of these compounds on a 60 tumor cell screen at the National Cancer Institute (USA).

hTRPV1 channels = target: T1, hTRPV1 channels (Homo sapiens, UniProt Q8NER1); assay: Ca2+ microfluorometry in HEK cells expressing hTRPV1 (capsaicin); conditions: 1 µM capsaicin; for TRPV1 Blockade (%) 5 µM: 5 µM compound; for TRPV1 Blockade (%) 50 µM: 50 µM compound
T1 construct: expressed in transfected cells; host or cells: HEK (stably transfected)
T1 sequence (Q8NER1 whole entry): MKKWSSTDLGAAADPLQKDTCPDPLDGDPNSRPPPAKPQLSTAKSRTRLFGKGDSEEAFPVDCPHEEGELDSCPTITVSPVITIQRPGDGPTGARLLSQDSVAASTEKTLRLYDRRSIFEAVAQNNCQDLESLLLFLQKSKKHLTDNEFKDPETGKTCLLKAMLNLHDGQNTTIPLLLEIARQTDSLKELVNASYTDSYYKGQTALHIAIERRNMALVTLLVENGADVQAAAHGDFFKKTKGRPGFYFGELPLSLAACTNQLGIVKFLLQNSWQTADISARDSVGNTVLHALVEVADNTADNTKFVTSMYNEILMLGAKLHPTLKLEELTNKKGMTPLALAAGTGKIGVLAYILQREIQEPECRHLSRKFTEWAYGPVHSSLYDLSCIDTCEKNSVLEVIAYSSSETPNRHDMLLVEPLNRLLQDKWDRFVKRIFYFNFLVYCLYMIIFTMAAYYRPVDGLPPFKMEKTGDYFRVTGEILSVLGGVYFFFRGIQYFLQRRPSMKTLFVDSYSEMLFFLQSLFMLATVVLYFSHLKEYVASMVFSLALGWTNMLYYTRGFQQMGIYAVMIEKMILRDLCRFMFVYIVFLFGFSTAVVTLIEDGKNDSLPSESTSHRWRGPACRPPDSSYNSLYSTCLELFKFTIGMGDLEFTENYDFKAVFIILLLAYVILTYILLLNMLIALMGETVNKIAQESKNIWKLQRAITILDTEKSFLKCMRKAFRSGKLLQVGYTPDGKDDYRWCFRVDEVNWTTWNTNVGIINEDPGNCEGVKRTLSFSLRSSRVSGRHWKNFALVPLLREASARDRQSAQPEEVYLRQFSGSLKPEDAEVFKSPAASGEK
Protocol: β-Lactam and 2-ketopiperazine derivatives were also assayed for their activity in cell expressing hTRPV1 channels. No significant antagonist activity was measured for any derivatives within both chemotypes (Supplementary Tables S1, S2, and Fig. S3), indicating their selectivity for TRPM8 channels.
Human embryonic kidney cell line (HEK) stably transfected with rTRPM8 or h-TRPV1 were used as previously described. Briefly, cells were seeded in 96-well plates at a cell density of 30,000 cells 2 days before treatment. Buffer used was HBBS (in mM): 138 NaCl, 5.33 KCl, 1.26 CaCl2, 0.5 MgCl-6H2O, 0.4 MgSO4-7H2O, 4 NaHCO3 0.44 KH2PO4, 0.3 Na2HPO4, pH 7.4. The day of treatment the medium was replaced with 100 µL of the dye loading solution Fluo-4 NW supplemented with probenecid 2.5 mM. After incubation, plates were transferred to a fluorescence plate reader (Polastar BMG). In the experimental protocol, the baseline fluorescence was recorded ([…]) for 3 cycles. After, vehicle, compound at different concentrations and the corresponding antagonist, 10 µM AMTB for TRPM8 or 10 µM Ruthenium Red for TRPV1 were added to the well. Fluorescence intensity was recorded during 7 cycles more. Finally, the agonist 100 µM menthol for TRPM8 or 1 µM capsaicin for TRPV1 was added and fluorescence intensity was recorded during 10 cycles more.
Table S1. Activity at hTRPV1 of β–lactams derived from phenylalaninol conjugates
Compd. Isomer Isomer TRPV1 Blockade (%)
Table S2. Activity at hTRPV1 of 2-ketopiperazines derived from phenylalaninol

`C[C@@H]1C(=O)N(C[C@H](Cc2ccccc2)NC(=O)OCc2ccccc2)[C@]1(Cc1ccccc1)C(=O)OCc1ccccc1` [Compound 24a, 4S-Benzyl-4-benzyloxycarbonyl-3S-methyl-1-[(2′S-benzyloxycarbonylamino-3′-phenyl)prop-1′-yl]-2-oxoazetidine] gave a TGI PSN1 [1] greater than 17.3 µM, a GI50 [1] of 5.55 µM and a CC50 [1] greater than 17.3 µM. It also gave a TGI MDA-MB-231 [2] greater than 17.3 µM, a GI50 [2] greater than 17.3 µM and a CC50 [2] greater than 17.3 µM. The “Growth inhibition in 60 tumor cell screen” value (60 tumor cell screen) was “non-selective, modest cytotoxic effects”, the “TRPV1 Blockade (%) 5 µM” value (hTRPV1 channels) was 9.7±1.1% and the “TRPV1 Blockade (%) 50 µM” value (hTRPV1 channels) was 11.8±3.2%.

In the case of `C[C@@H]1C(=O)N(C[C@@H](Cc2ccccc2)NC(=O)OCc2ccccc2)[C@]1(Cc1ccccc1)C(=O)OCc1ccccc1` [Compound 29a, 4S-Benzyl-4-benzyloxycarbonyl-3S-methyl-1-[(2′R-benzyloxycarbonylamino-3′-phenyl)prop-1′-yl]-2-oxoazetidine], the TGI PSN1 [1] is reported as greater than 17.3 µM, the GI50 [1] is reported as 6.42 µM and the CC50 [1] is reported as greater than 17.3 µM. The TGI MDA-MB-231 [2] was greater than 17.3 µM, the GI50 [2] was 12.7 µM and the CC50 [2] was greater than 17.3 µM. For the same compound, the “Growth inhibition in 60 tumor cell screen” value (60 tumor cell screen) was “non-selective, modest cytotoxic effects”, the “TRPV1 Blockade (%) 5 µM” value (hTRPV1 channels) was 8.2±2.1% and the “TRPV1 Blockade (%) 50 µM” value (hTRPV1 channels) was 16.2±4.7%.
